We go through four compounds from paper PMC10477481 (The Journal of Biological Chemistry, 2023).

The target in test [1] is T1, recombinant human active MMP-2 (Homo sapiens, UniProt P08253).
T1 construct: the mature active enzyme (amino acids: 110–660), expressed in E. coli (Sigma, catalog no.: SRP3118); purchased Sigma SRP3118; host or cells: E. coli
T1 sequence (P08253 110-660): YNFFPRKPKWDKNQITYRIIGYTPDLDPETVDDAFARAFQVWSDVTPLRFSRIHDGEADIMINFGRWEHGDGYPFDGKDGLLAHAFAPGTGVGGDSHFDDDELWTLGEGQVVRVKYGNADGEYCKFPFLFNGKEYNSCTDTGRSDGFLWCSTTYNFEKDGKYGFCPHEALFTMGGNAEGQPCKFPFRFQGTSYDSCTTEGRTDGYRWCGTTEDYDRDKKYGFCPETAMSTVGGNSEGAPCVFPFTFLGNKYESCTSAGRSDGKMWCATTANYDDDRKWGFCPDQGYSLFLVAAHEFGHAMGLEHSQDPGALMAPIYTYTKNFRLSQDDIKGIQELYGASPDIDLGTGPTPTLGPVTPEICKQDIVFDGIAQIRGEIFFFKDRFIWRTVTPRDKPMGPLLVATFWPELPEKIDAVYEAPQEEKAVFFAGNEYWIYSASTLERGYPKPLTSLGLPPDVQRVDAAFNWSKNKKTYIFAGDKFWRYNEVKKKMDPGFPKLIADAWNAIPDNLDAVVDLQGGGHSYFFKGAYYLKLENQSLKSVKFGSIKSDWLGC
Format: biochemical. Conditions: pH 7.4.
Method: The assay was performed using fluorogenic dye-quenched (DQ)-gelatin from pig skin (ThermoFisher Scientific) as substrate and recombinant human MMP-2 enzyme (Sigma; catalog no.: SRP3118), dissolved in water (100 μg/ml), and diluted further in reaction buffer (50 mM Tris, 150 mM NaCl, 5 mM CaCl2, pH = 7.4). The assay (and control) reactions were composed by loading 50 μl enzyme (or buffer), 40 μl inhibitor (or buffer), and 10 μl substrate (or buffer) into wells of a 96-well plate (PS, black, half-area, clear-bottom; Greiner Bio-One) at concentrations needed for the stated final concentrations. […] Immediately thereafter, the plate was placed in a fluorescence plate reader (SpectraMax iD3; Molecular Devices), and fluorescence was measured every 15 min for 3 h (KM measurements) or every 5 min for 1 h (inhibitor measurements) at 37 °C (λexcitation = 484 nm and λemission = 525 nm). KM was determined by measuring V0 at a series of substrate concentrations (1.25, 2.5, 5, 10, 20, and 40 μg/ml) and enzyme concentrations of 2.5, 5, and 10 nM. Thereafter, the lowest enzyme concentration with reasonably good signal-to-noise ratio (2.5 nM) and a substrate concentration (3.5 μg/ml) approximately equivalent with the determined KM value (3.4 μg/ml, i.e., 34 nmol/l as calculated with approximate MW of 100,000 g/mol for DQ gelatin) were applied in the enzyme inhibition study. […]

Test [2] addresses matrix metalloproteinase 2, recombinant (which of the four preparations is not told) (human) (UniProt P08253). The experiment in a line: flow cytometry of protein-coated microbeads (Ig-coated bead test); KD estimated by the authors from the direct binding assays with labeled CTX and the competitive displacement studies together.
The test system of test [3] is pro-MMP-2 activated by APMA. Conditions: fluorescence-quenched MMP-specific peptide substrate; read-out: KM of FS-6 with MMP; cited from earlier work. Here is the method:
The assay was performed using a fluorescence-quenched MMP-specific peptide substrate FS-6 (Sigma; catalog no.: SCP0193, KM >30 μM) ([20]). Recombinantly produced human proMMP2 enzyme, dissolved in reaction buffer (70 mM Tris [pH 8.0], 150 mM NaCl, 5 mM CaCl2, 1 μM ZnCl2, and 0.05% Brij-35) at a concentration of 500 nM, was activated by addition of 1 mM APMA and incubated at 37 °C for 1 h. The assay reaction was then composed by adding 0.5 μl activated enzyme to yield a final concentration of 2.5 nM, 94.5 μl test substance (inhibitor) in reaction buffer, and finally 5 μl substrate to reach a fi ...

A further test has as its system kallikrein. The following applies: cited from earlier work. An excerpt: Therefore, we produced a CTX-displaying phage clone, customized, and validated the flow cytometry–based cobalt-coated bead test for quantitative assessment of the binding tendency of ligand-displaying phages to target proteins immobilized on the surface of microbeads. To support the validation and to investigate the specificity of bind ...

On to `CNC(=O)[C@H](Cc1c[nH]c2ccccc12)NC(=O)[C@@H](CC(=O)NO)CC(C)C` [Ilomastat, ilomastat], for which, in test [1], the “effect on gelatinolytic activity of MMP-2” value is reported as “concentration-dependent inhibition”.
Consider “chlorotoxin, synthetically produced, with carboxamide C terminus (from UniProt P45639 1-36) (peptide)”, for which, in test [2], the Kd was 500 to 600 nM.
Regarding “Mca-Lys-Pro-Leu-Gly-Leu-Dpa-Ala-Arg-NH2 [FS-6, fluorescence-quenched MMP-specific peptide substrate]”, in test [3], the Km was greater than 30 µM.
Regarding ecallantide [DX-88], the affinity to kallikrein result in the test with kallikrein is given as “subnanomolar affinity”.

As a reminder, the Kd is the concentration at which binding is half-saturated. For orientation: Km means the substrate concentration at which the rate is half of its maximum.
